Test results taken from patent EP1059033A1, “INDUSTRIAL ANTIBACTERIAL/ANTIFUNGAL AGENTS, ALGICIDES AND ANTI-BIOLOGICAL ADHESION AGENTS CONTAINING BENZYLAMINES” (Nissan Chemical Industries, Ltd., priority 1998, dated 1999).
In brackets after ≈: the same amount, converted by molar mass. Where two headings read alike, the source gives them in different places.

What was measured:
Assay type in all cases: cell-based
[1] = test system: Trichophyton mentagrophytes; details: 72 h, 100 ppm
Protocol: 31.3 ml of Trichophyton mentagrophytes to be tested was added to 125 ml of a potato dextrose agar culture medium (Nissui Seiyaku Co.). The medium was stirred not to foam the solutions, poured into plates uniformly and solidified.
Thereafter, predetermined amounts of the compounds of the invention were weighted and diluted with acetone to predetermined concentrations.
Paper disks were impregnated with samples containing predetermined amounts of the compounds of the invention, laid on a filter, dried with air and placed on a plate containing test microbe at equal intervals.
Trichophyton mentagrophytes was cultured at 28 °C for 3 days in a thermostatic chamber and the diameter of each inhibiting zone was measured to evaluate the activity of each compound. Symbols in the table mean the followings; • A: Trichophyton mentagrophytes, • ++: strongly inhibiting zone (equal to or more than 21 mm) is observed, • +: inhibiting zone (10 to 20 mm) is observed, • -: no inhibiting zone is observed.

[2] = test system: freshwater green alga (Selenastrum capricornutum); assay: Inhibition of propagation of freshwater green alga (Example 4); details: after 72 hours, cell number vs non-treated lot; for inhibition at 0.05 ppm: 50ppb, read-out: Propagation inhibiting rate(%) 50ppb; for inhibition at 0.5 ppm: 500ppb, read-out: Propagation inhibiting rate(%) 500ppb
Protocol: A predetermined amount of each of the compounds of the invention was dissolved in a culture medium containing 10^5 /ml of a freshwater green alga (Selenastrum capricornutum) at a logarithmic growth phase to prepare samples having a concentration of the compound of the invention in the medium of 500 ppb and 50ppb respectively. The samples were stationary cultured at 23±1 °C for […] under continuous illumination.
After 72 hours, the number of cells was measured using a hemacytometer to obtain propagation rate. The propagation inhibiting rate was calculated from comparison with the non-treated lot.

[3] = test system: Trichophyton mentagrophytes; assay: Agar dilution MIC (Example 2); details: 168 h, agar plate, 27 °C, 7 days
Protocol: Series of diluted samples (20000, 10000, 5000, 2500, 2000, 1250, 625, 313, 156, 78, 39, 20, 10, 5, 2.5, 1.25 mg/l) of the compounds of the invention were prepared using dimethylsulfoxide. A sensitive culture medium-N (Nissui Seiyaku Co.) was used for bacteria and a potato dextrose agar culture medium (Nissui Seiyaku Co.) was used for fungi. 0.5 ml of each sample was added to and mixed with 9.5 ml of the culture medium, poured into a Petri dish and solidified to obtain a plate. As a result, the concentration of the compounds of the invention in the agar culture medium were 1000, 500, 250, 125, 100, 62.5, 31.3, 15.6, 7.8, 3.9, 2.0, 1.0, 0.5, 0.25, 0.125, 0.062 mg/l. The bacterium inoculated were cultured in a bouillon for the assay of sensitivity (Nissui Seiyaku Co.) at 37 °C for 20 hours, and the fungi were cultured in the potato dextrose agar culture medium (Nissui Seiyaku Co.) for 10 days and then a 10^6 CFU/ml suspension was prepared from each of them. A test bacteria or fungi suspension was streaked on an agar plate containing the compound of the present invention with platinum wire loop, and the agar plate was cultured at 37±1 °C for 18 to 20 hours for bacteria or at 27 °C for 7 days for fungi. A concentration at which no growth was seen was taken as minimum inhibitory concentration [MIC(mg/l)]. Symbols in the table mean the followings; • A: Bacillus subtilis, • B: Trichophyton mentagrophytes, • C: Rhodotorula mucilaginosa.

[4] = test system: Chaetomium globosum; assay: Agar dilution MIC (Example 3); details: 168 h, agar plate, 27 °C, 7 days
Protocol: (§1) Series of diluted samples (20000, 10000, 5000, 2500, 1250, 625, 313, 156, 78, 39 mg/l) of the compounds of the invention were prepared using dimethylsulfoxide. A sensitive culture medium-N (Nissui Seiyaku Co.) was used for bacteria and a potato dextrose agar culture medium (Nissui Seiyaku Co.) was used for fungi. 0.5 ml of each sample was added to and mixed with 9.5 ml of the culture medium, poured into a Petri dish and solidified to obtain a plate. As a result, the concentration of the compounds of the invention in the agar culture medium were 1000, 500, 250, 125, 62.5, 31.3, 15.6, 7.8, 3.9, 2.0 mg/l. The bacterium inoculated were cultured in a bouillon for the assay of sensitivity (Nissui Seiyaku Co.) at 37 °C for 20 hours, and the fungi were cultured in the potato dextrose agar culture medium (Nissui Seiyaku Co.) for 10 days and then a 10^6 CFU/ml suspension was prepared from each of them. A test bacteria or fungi suspension was streaked on an agar plate containing the compound of the present invention with platinum wire loop, and the agar plate was cultured at 37±1 °C for 18 to 20 hours for bacteria or at 27 °C for 7 days for fungi. A concentration at which no growth was seen was taken as minimum inhibitory concentration (MIC). Symbols in the tables mean the followings; • A: Bacillus subtilis, • B: Trichophyton mentagrophytes, • C: Staphylococcus aureus, • D: Aspergillus niger, • E: Penicillium funiculosum, • F: Candida albicans, • G: Micrococcus luteus, • H: Corynebacterium aquaticum, • I: Chaetomium globosum, • J: Fusarium moniliforme, • K: Saccharomyces cerevisiae, • L: Rhodotorula rubra, • M: Cladosporium cladosporioides, • N: Alternaria alternata.

[5] = test system: Corynebacterium aquaticum; assay: Agar dilution MIC (Example 3); details: Leifsonia aquatica, agar plate, 37±1 °C, 18 to 20 hours
Protocol: as §1

[6] = test system: Saccharomyces cerevisiae; assay: Agar dilution MIC (Example 3); details: 168 h, agar plate, 27 °C, 7 days
Protocol: as §1

[7] = test system: freshwater blue-green alga (Microcystis aeruginosa); assay: Inhibition of propagation of freshwater algae (Example 6); details: 500ppb
Protocol: (§2) A predetermined amount each of the compounds of the invention was dissolved in a culture medium containing 10^5 /ml of a freshwater alga at a logarithmic growth phase to prepare samples having a concentration of the compound of the invention in the medium of 500 ppb and 50 ppb respectively. A shaking culture at 100 rpm was performed for […] under continuous illumination at 20±2 °C for freshwater diatom and at 23±2 °C for other algae.
(§3) After 72 hours and 168 hours, the […] of cells was measured using a hemacytometer to obtain propagation rate. The propagation inhibiting rate was calculated from comparison with the non-treated lot. Symbols in the tables mean the followings; • A: freshwater green alga (Chlorella pyrenoidosa), • B: freshwater blue-green alga (Microcystis aeruginosa), • C: freshwater diatom (Diatoma elongatum), • D: freshwater green alga (Scenedesmus pannonicus).

[8] = test system: freshwater green alga (Scenedesmus pannonicus); assay: as above; details: Desmodesmus pannonicus, 500ppb
Protocol: as §2, §3

[9] = test system: seawater diatom [Nitzschia closterium]; assay: Inhibition of propagation of seawater diatom (Example 5); details: Cylindrotheca closterium, 72 h, read-out: Propagation inhibiting rate(%) 500ppb
Protocol: A predetermined amount of each of the compounds of the invention was dissolved in culture media containing 10^5 /ml of a seawater diatom [Nitzschia closterium] at a logarithmic growth phase to prepare samples having a concentration of the compound in the medium of 500 ppb. The samples were stationary cultured at 22±1 °C for […] under continuous illumination.
After 72 hours, cells were collected by centrifugation and disrupted by addition of methanol to extract chlorophyll, and the amount of chlorophyll was measured from absorbance using a spectrophotometer to obtain propagation rate. The propagation inhibiting rate was calculated from comparison with the non-treated lot.

SMILES | inhibition at 0.5 ppm [2] | MIC [3] | further results
CN(Cc1ccc(C(C)(C)C)cc1)Cc1cc(Cl)cc(Cl)c1 [Compound 1] | 94% | – | Judgment (Target bacteria: A) [1]: ++ (strongly inhibiting zone (equal to or more than 21 mm) is observed); inhibition at 0.05 ppm [2]: 79%
CN(Cc1ccc(C(C)(C)C)cc1)Cc1cccc(Cl)c1 [Compound 10] | 95% | 0.25 µg/mL (≈ 0.828 µM) | Judgment (Target bacteria: A) [1]: ++ (strongly inhibiting zone (equal to or more than 21 mm) is observed); inhibition at 0.05 ppm [2]: 87%
Cc1cccc(CN(C)Cc2ccc(C(C)(C)C)cc2)c1 [Compound 11] | 93% | < 1 µg/mL | MIC [4]: 63 µg/mL (≈ 224 µM); MIC [5]: 63 µg/mL (≈ 224 µM); inhibition at 0.05 ppm [2]: 70%
CN(Cc1ccc(C(C)(C)C)cc1)Cc1cccc(C(F)(F)F)c1 [Compound 12] | 90% | < 1 µg/mL | MIC [4]: 125 µg/mL (≈ 373 µM); MIC [6]: 125 µg/mL (≈ 373 µM)
COc1cccc(CN(C)Cc2ccc(C(C)(C)C)cc2)c1 [Compound 13] | 92% | < 1 µg/mL | MIC [5]: 63 µg/mL (≈ 212 µM)
Clc1ccc(CNCc2c(Cl)cccc2Cl)cc1Cl [Compound 15] | 94% | 3.9 µg/mL (≈ 11.6 µM) | inhibition at 0.5 ppm ([7]; 72hr, read-out: Propagation inhibiting rate(%) 500ppb 72hr): 92%; inhibition at 0.5 ppm ([7]; 168hr, read-out: Propagation inhibiting rate(%) 500ppb 168hr): 100%; inhibition at 0.5 ppm ([8]; 72hr, read-out: Propagation inhibiting rate (%) 500ppb 72hr): 95%; inhibition at 0.5 ppm ([8]; 168hr, read-out: Propagation inhibiting rate (%) 500ppb 168hr): 98%
CN(Cc1ccc(C(C)(C)C)cc1)Cc1ccccc1Cl [Compound 17] | 83% | 1 µg/mL (≈ 3.31 µM) | –
CN(Cc1ccc(C(C)(C)C)cc1)Cc1ccc(Cl)cc1Cl [Compound 18] | – | 1 µg/mL (≈ 2.97 µM) | –
CN(Cc1ccc(C(C)(C)C)cc1)Cc1c(F)c(F)c(F)c(F)c1F [Compound 21] | – | 7.8 µg/mL (≈ 21.8 µM) | –
CN(Cc1ccc(C(C)(C)C)cc1)Cc1cc(Cl)ccc1Cl [Compound 22] | – | 1 µg/mL (≈ 2.97 µM) | –
CN(Cc1ccc(C(C)(C)C)cc1)Cc1cccc(Cl)c1Cl [Compound 24] | 85% | 0.125 µg/mL (≈ 0.372 µM) | –
CN(Cc1ccc(Cl)c(Cl)c1)C1CCc2ccccc21 (centres unmarked) [Compound 25] | 95% | 15.6 µg/mL (≈ 50.9 µM) | –
CN(Cc1ccc(C(C)(C)C)cc1)C1CCOc2ccccc21 (centres unmarked) [Compound 26] | – | 1 µg/mL (≈ 3.23 µM) | –
CC(C)c1ccc(CN(C)Cc2cccc3ccccc23)cc1 [Compound 29] | 96% | – | Judgment (Target bacteria: A) [1]: ++ (strongly inhibiting zone (equal to or more than 21 mm) is observed); inhibition at 0.05 ppm [2]: 95%; inhibition at 0.5 ppm [9]: 76%
CN(Cc1ccc(C(C)(C)C)cc1)Cc1c(Cl)ccc(Cl)c1Cl [Compound 33] | – | 1 µg/mL (≈ 2.7 µM) | –
CCCCCCc1ccc(CN(C)Cc2cccc3ccccc23)cc1 [Compound 36] | 83% | 2 µg/mL (≈ 5.79 µM) | –
CN(Cc1ccc(Cl)c(Cl)c1)Cc1cccc2ccccc12 [Compound 37] | 69% | 0.5 µg/mL (≈ 1.51 µM) | –
COc1ccc(CN(C)Cc2cccc3ccccc23)cc1 [Compound 38] | 75% | 7.8 µg/mL (≈ 26.8 µM) | –
Cc1ccc(CN(C)Cc2cccc3ccccc23)cc1 [Compound 39] | 90% | 3.9 µg/mL (≈ 14.2 µM) | –
CN(Cc1cc(Cl)cc(Cl)c1)Cc1cccc2ccccc12 [Compound 40] | 61% | – | inhibition at 0.05 ppm [2]: 61%
Cc1ccc(CN(C)Cc2cccc3ccccc23)cc1C [Compound 41] | 97% | 7.8 µg/mL (≈ 27 µM) | inhibition at 0.05 ppm [2]: 66%
CN(Cc1ccc(F)c(F)c1)Cc1cccc2ccccc12 [Compound 45] | 87% | 15.6 µg/mL (≈ 52.5 µM) | –
CN(Cc1ccc(C#N)cc1)Cc1cccc2ccccc12 [Compound 46] | 96% | 15.6 µg/mL (≈ 54.5 µM) | –
CC(C)Oc1ccc(CN(C)Cc2cccc3ccccc23)cc1 [Compound 47] | 71% | 7.8 µg/mL (≈ 24.4 µM) | inhibition at 0.05 ppm [2]: 63%
CN(Cc1c(Cl)cccc1Cl)Cc1cccc2ccccc12 [Compound 48] | 77% | – | inhibition at 0.5 ppm [9]: 77%
Cc1cccc(CN(C)Cc2cccc3ccccc23)c1 [Compound 50] | 93% | 15.6 µg/mL (≈ 56.6 µM) | –
CCCOc1ccc(CN(C)Cc2cccc3ccccc23)cc1 [Compound 51] | – | 15.6 µg/mL (≈ 48.8 µM) | –
